Results reported in paper PMC2358886, “Evolution of pharmacologic specificity in the pregnane X receptor” (BMC Evolutionary Biology, 2008).
Read-outs that look alike come from different tables or passages of the source.

Assays:
human PXR [1] = biological target: T1, human PXR (Homo sapiens, UniProt O75469)
T1 sequence (O75469 1-434): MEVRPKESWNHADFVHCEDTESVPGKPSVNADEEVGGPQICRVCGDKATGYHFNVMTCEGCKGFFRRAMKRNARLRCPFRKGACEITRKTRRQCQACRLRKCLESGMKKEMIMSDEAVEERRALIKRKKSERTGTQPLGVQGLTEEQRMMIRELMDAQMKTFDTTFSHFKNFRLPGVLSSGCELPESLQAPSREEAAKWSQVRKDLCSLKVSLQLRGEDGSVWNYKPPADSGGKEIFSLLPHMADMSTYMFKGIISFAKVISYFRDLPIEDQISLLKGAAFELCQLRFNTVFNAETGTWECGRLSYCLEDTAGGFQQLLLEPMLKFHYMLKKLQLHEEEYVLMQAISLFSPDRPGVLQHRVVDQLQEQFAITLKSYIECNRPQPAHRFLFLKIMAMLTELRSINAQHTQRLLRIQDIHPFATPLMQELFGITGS

zebrafish PXR = biological target: T2, zebrafish PXR (Danio rerio, UniProt A5WYG8)
T2 sequence (A5WYG8 144-430): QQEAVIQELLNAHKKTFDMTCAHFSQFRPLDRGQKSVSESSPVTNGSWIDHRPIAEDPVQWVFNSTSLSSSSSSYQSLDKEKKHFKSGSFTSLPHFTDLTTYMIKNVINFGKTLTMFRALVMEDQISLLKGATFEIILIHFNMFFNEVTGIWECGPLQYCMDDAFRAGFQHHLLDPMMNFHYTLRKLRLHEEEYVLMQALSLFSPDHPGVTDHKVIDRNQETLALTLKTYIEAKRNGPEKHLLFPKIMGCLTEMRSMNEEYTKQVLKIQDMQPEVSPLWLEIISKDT

human PXR [2] = biological target: T1, human PXR; assay: PXR activation luciferase reporter assay, human PXR in HepG2-NTCP cells
[3] = -log(EC50), EC50 in molar units, activation of zebrafish PXR
[4] = -log(EC50), EC50 in molar units, activation of human PXR
[5] = relative to 20 μM 5α-androstan-3α-ol, assigned an efficacy of 1.0
[6] = hPXR Activity, -log(EC50), EC50 in molar units, activation of human PXR

Molecule | hPXR Efficacy (human PXR [1]) | zfPXR Activity (zebrafish PXR; [3]) | Toxicity (HepG2 cells) | hPXR Activity (human PXR [2]; [4]) | hPXR Activity (human PXR [1]) | also measured
C[C@]12CC[C@H]3[C@@H](CCC4=CC(=O)CC[C@@]43C)[C@@H]1CC[C@@H]2C(=O)CO [PR9, 4-Pregnen-21-ol-3,20-dione] |  |  |  |  |  | hPXR Efficacy (human PXR [1]; human): 0.3; Zebrafish PXR EC50 (concentration class, Figure 2B) (zebrafish PXR): Inactive; zfPXR Activity (zebrafish PXR): None; Toxicity (HepG2 cells; human): 200 µM; EC50 (human PXR [2]; Human PXR EC50 (concentration class, Figure 2A)): < 10 µM; EC50 (human PXR [2]; hPXR Activity): 2.45 µM
C[C@]12CC[C@H]3[C@@H](CCC4=CC(=O)CC[C@@]43C)[C@@H]1CC[C@H]2OS(=O)(=O)O [AN17, 4-Androsten-17α-sulfate-3-one] | 0.67 | None | None | 5.47 |  | 
C[C@]12CC[C@@H]3c4ccc(OS(=O)(=O)O)cc4CC[C@H]3[C@@H]1CC[C@@H]2O [ES10, 1,3,5(10)-Estratrien-17β-ol-3-sulfate] | 0.6 | None | 200 µM | 6.05 |  | 
C[C@]12CC[C@@H](O)C[C@H]1CC[C@@H]1[C@@H]2[C@@H](O)C[C@@]2(C)[C@H]1CC[C@]2(O)C(=O)CO [PR24, 5β-Pregnan-3α,11β,17,21-tetrol-20-one] |  | 3.94 | None |  | 4.33 | zfPXR Efficacy (zebrafish PXR; [5]): 0.11
CCOP(=S)(OCC)Oc1nc(Cl)c(Cl)cc1Cl [MI10, Chlorpyrifos] |  |  | None |  |  | hPXR Efficacy (human PXR [1]; human): 2.05; EC50 (human PXR [2]; [6]): 25.7 µM
CC(CO)CCC[C@@H](C)[C@H]1[C@H](O)C[C@H]2[C@@H]3[C@H](O)C[C@H]4C[C@@H](O)CC[C@]4(C)[C@H]3CC[C@]12C (stereo partly drawn) [BI40, 5α-Cholestan-3β,7α,16α,27-tetrol] |  | None |  |  | None | Toxicity (HepG2 cells; human, 24 hr): 100 µM
Cc1cc(O)cc2c1O[C@](C)(CCC[C@H](C)CCC[C@H](C)CCCC(C)C)CC2 [MI39, δ-Tocopherol] | 0.64 | None | 100 µM | 5.14 |  | 
C[C@H](CCCO)[C@H]1CC[C@H]2[C@@H]3[C@H](O)C[C@H]4C[C@H](O)CC[C@]4(C)[C@H]3C[C@H](O)[C@]12C [BI29, 5α-Cholan-3α,7α,12α,-24-tetrol] |  | None | 50 µM |  | None | 
C=C1/C(=C\C=C2/CCC[C@]3(C)[C@@H]([C@H](C)/C=C/[C@H](C)C(C)C)CC[C@@H]23)C[C@@H](O)C[C@@H]1O [MI42, 1α-Hydroxyvitamin D2] |  | None |  |  | None | Toxicity (HepG2 cells; human, 24 hr): 50 µM
CC(=O)[C@H]1CC[C@H]2[C@@H]3CC=C4C[C@@H](OS(=O)(=O)O)CC[C@]4(C)[C@H]3CC[C@]12C [PR26, 5-Pregnen-20-one-3β-sulfate] |  | 4.95 | None |  | None | zfPXR Efficacy (zebrafish PXR; [5]): 0.23
CC(=O)[C@H]1CC[C@H]2[C@@H]3CC[C@H]4C[C@H](O)CC[C@]4(C)[C@H]3CC[C@]12C [PR14, 5α-Pregnan-3α-ol-20-one] |  |  | None |  |  | hPXR Efficacy (human PXR [1]; human): 0.46; EC50 (human PXR [2]; [6]): 4.17 µM
COc1c(O)ccc2c1CC[C@@H]1[C@@H]2CC[C@]2(C)C(=O)CC[C@@H]12 [ES5, 1,3,5(10)-Estratrien-3-ol-4-methoxy-17-one] |  | 5.62 | None |  | 5.40 | zfPXR Efficacy (zebrafish PXR): 0.19
C[C@H](CCCC(CO)CO)[C@H]1CC[C@H]2[C@@H]3[C@H](O)C[C@@H]4C[C@H](O)CC[C@]4(C)[C@H]3C[C@H](O)[C@]12C [BI37, 5β-Cholestan-3α,7α,12α,26,27-pentol] |  | None |  |  | None | Toxicity (HepG2 cells; human, 24 hr): 50 µM
C[C@]12CC[C@@H](O)C[C@@H]1CC[C@@H]1[C@@H]2[C@@H](O)C[C@]2(C)[C@@H](C(=O)CO)CC[C@@H]12 [PR20, 5α-Pregnan-3α,11β,21-triol-20-one] | 0.26 | None | None | 4.90 |  | 
C[C@]12CC[C@H](O)CC1=CC[C@@H]1[C@@H]2CC[C@]2(C)C(=O)CC[C@@H]12 [AN9, 5-Androsten-3β-ol-17-one] | 0.52 |  | None |  | 4.49 | EC50 (human PXR [1]): 11 to 50 µM; EC50 (zebrafish PXR): 11 to 50 µM; zfPXR Activity (zebrafish PXR): 4.89; zfPXR Efficacy (zebrafish PXR): 0.35
CC(C)[C@@H](C)/C=C/[C@@H](C)[C@H]1CC[C@H]2C3=CC=C4C[C@@H](O)CC[C@]4(C)[C@H]3CC[C@]12C [MI29, Provitamin D2] |  | None | 20 µM |  | None | 
Vitamin K2 [MI45] | 0.80 | None | 100 µM | 5.04 |  | 
C[C@H](CCC(O)C(CO)CO)[C@H]1CC[C@H]2[C@@H]3[C@H](O)C[C@@H]4C[C@H](O)CC[C@]4(C)[C@H]3C[C@H](O)[C@]12C (stereo partly drawn) [BI35, 5β-Cholestan-3α,7α,12α,24,26-hexol] |  | None | 100 µM |  | None | 
C[C@H](O)[C@H]1CC[C@H]2[C@@H]3CC[C@H]4C[C@H](O)CC[C@]4(C)[C@H]3CC[C@]12C [PR15, 5α-Pregnan-3α,20α-diol] | 0.16 | 4.58 | None | 4.28 |  | zfPXR Efficacy (zebrafish PXR): 0.29
CC(=O)[C@H]1CC[C@H]2[C@@H]3CC[C@@H]4C[C@H](O)CC[C@]4(C)[C@H]3CC[C@]12C [PR25, 5β-Pregnan-3α-ol-20-one] | 0.55 | 6.64 | 100 µM | 4.98 |  | 
C[C@H](CC(=O)O)[C@H]1CC[C@H]2[C@@H]3CC[C@@H]4C[C@H](O)CC[C@]4(C)[C@H]3C[C@H](O)[C@]12C [BI26, 23-Nordeoxycholic acid] |  | None | None |  | 4.79 | 
C[C@H](O)[C@H]1CC[C@H]2[C@@H]3CC[C@@H]4C[C@H](O[C@@H]5O[C@H](C(=O)O)[C@@H](O)[C@H](O)[C@H]5O)CC[C@]4(C)[C@H]3CC[C@]12C [PR16, 5β-Pregnan-3α,20α-diol-3-glucosiduronate] | 0.17 | 4.78 | None | 4.26 |  | zfPXR Efficacy (zebrafish PXR; [5]): 1.42
C[C@@H](O)[C@@]1(O)CC[C@H]2[C@@H]3CCC4=CC(=O)CC[C@]4(C)[C@H]3CC[C@@]21C [PR21, 4-Pregnen-17α,20β-diol-3,20-dione] |  | None | 200 µM |  | None | 
CC(O)C1CCC2C3CCC4CC(O)CCC4(C)C3CCC12C (stereo not drawn) [PR1, 5β-Pregnan-3α,20α-diol] | 0.34 | None | 100 µM | 5.29 |  | 
Cc1cc(O)c(C)c2c1O[C@](C)(CCC[C@H](C)CCC[C@H](C)CCCC(C)C)CC2 [MI38, β-Tocopherol] | 0.33 | None | 100 µM | 4.85 |  | 
C[C@]12CC[C@@H]3c4ccc(O)cc4CC[C@H]3[C@@H]1C[C@@H](O)C2=O [ES4, 1,3,5(10)-Estratrien-3,16α-diol-17-one] |  | 5.70 | None |  | 5.60 | zfPXR Efficacy (zebrafish PXR): 0.17
C[C@H](CCC(=O)NCCS(=O)(=O)O)[C@H]1CC[C@H]2[C@@H]3CC[C@@H]4C[C@H](OS(=O)(=O)O)CC[C@]4(C)[C@H]3CC[C@]12C [BI44, 5β-Cholanic acid-3α-sulfate N-(2-sulfoethyl)-amide] |  | None | None |  |  | hPXR Efficacy (human PXR [1]; human, 1 day): 0.55; EC50 (human PXR [2]; [6]): 83.2 µM
C[C@]12CC[C@H](OS(=O)(=O)O)CC1=CC[C@@H]1[C@@H]2CC[C@]2(C)C(=O)CC[C@@H]12 [AN12, 5-Androsten-3β-sulfate-17-one] | 0.22 | None | None | 4.32 |  | 
C[C@]12CC[C@@H]3c4ccc(O)cc4CC[C@H]3[C@@H]1C[C@@H](O)[C@@H]2O [ES3, 1,3,5(10)-Estratrien-3,16α,17β-triol] |  | None |  |  | None | Toxicity (HepG2 cells; human, 24 hr): 200 µM
